Target: T1, Amine oxidase [flavin-containing] B (Rattus norvegicus, UniProt P19643)
T1 sequence (P19643 whole entry): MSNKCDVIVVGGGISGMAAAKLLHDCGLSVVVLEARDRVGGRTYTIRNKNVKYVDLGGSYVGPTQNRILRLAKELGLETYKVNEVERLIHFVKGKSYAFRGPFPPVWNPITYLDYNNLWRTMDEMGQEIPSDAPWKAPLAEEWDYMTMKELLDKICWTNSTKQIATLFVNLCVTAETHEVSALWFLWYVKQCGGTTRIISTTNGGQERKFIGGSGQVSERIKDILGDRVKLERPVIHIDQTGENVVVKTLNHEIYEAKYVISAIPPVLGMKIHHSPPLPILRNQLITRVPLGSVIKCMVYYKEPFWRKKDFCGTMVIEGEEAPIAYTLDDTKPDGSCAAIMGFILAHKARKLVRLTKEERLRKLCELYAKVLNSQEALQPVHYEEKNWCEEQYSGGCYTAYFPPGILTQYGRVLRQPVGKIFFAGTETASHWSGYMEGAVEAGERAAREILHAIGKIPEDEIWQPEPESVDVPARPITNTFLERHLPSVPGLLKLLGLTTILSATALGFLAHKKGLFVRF
Assay: Enzyme Assay
Conditions: 37 °C
Description: MAO-B activity was measured by the spectrofluorimetric method of Morinan and Garratt.

Row | IC50 | SMILES
1 | 82.3 µM | CCN(CC)CCC(=O)c1sc(NC)nc1C [Thiazolyl derivative, 1]
2 | 7.5 µM | CCN(CC)CCC(=O)c1sc(-c2ccc(C)cc2)nc1C [Thiazolyl derivative, 2]
3 | 43.1 µM | Cc1nc(-c2ccccc2)sc1C(=O)CCN1CCCCC1 [Thiazolyl derivative, 3]
4 | 7.8 µM | Cc1nc(-c2ccccc2)sc1C(=O)CCN1CCOCC1 [Thiazolyl derivative, 4]
5 | 90.2 µM | O=C(CN1CCCCC1)Nc1nc(-c2ccccc2)cs1 [Thiazolyl derivative, 9]
6 | 411 µM | COc1ccc(-c2csc(NC(=O)CN3CCCCC3)n2)cc1 [Thiazolyl derivative, 10]
7 | 313 µM | COc1ccc(-c2csc(NC(=O)CCN3CCCCC3)n2)cc1 [Thiazolyl derivative, 11]

Reference: BindingDB's records for doi:10.3109/14756369909030324 (University of Catania, 1999)
